The values below are quoted from earlier work in patent publication US20230210792A1, “USE OF A COMBINATION OF […] A CXCR-2 INHIBITORS FOR THE TREATMENT OR PREVENTION OF FAMILIAL MEDITERRANEAN FEVER (FMF) AND FLARE-UPS THEREOF” (ARISTEA THERAPEUTICS, INC., priority 2020, published 2023).

Molecules are shown by their SMILES.

With `COc1cc2c(c(OC)c1OC)-c1ccc(OC)c(=O)cc1[C@@H](NC(C)=O)CC2` [Colchicine], where the note is “absorbed from the gastrointestinal tract”, the “Peak concentrations occur in (time to peak)” value is 0.5 to 2 h. In addition, the “eliminated unchanged in the urine” value (metabolized in the liver, excreted primarily in the feces) is on record as 10-20%.
